Biological target: T1, human GluR2 flip (unedited) AMPA receptor subunit (Homo sapiens, UniProt P42262)
T1 construct: expressed in transfected cells
Test: Calcium influx fluorescence assay (FLUO4, FLIPR), potentiation of glutamate response
Assay type: cell-based
Conditions: HEK293; HEK 293 cells expressing human GluR2 flip (unedited); fluorescence increase relative to that induced by cyclothiazide at maximum response; read-out: activity relative to cyclothiazide (at its maximal response)
Protocol: The ability of the compounds of the invention to potentiate glutamate receptor-mediated response may be determined a) by using fluorescent calcium-indicator dyes such as FLUO4 and additionally b) by measuring glutamate-evoked current recorded from human GluR2 flip unedited HEK293 cells.
384 well plates are prepared containing confluent monolayer of HEK 293 cells either stably expressing or transiently transfected with human GluR2 flip (unedited) AMPA receptor subunit. These cells form functional homotetrameric AMPA receptors. The tissue culture medium in the wells are discarded and the wells are each washed three times with standard buffer (80 μL) for the stable cell line (145 mM NaCl, 5 mM KCl, 1 mM MgCl2, 2 mM CaCl2, 20 mM N-[2-hydroxyethyl]-piperazine-N-[2-ethanesulfonic acid (HEPES), 5.5 mM glucose, pH 7.3) or with a Na-free buffer for the transient transfected cells (145 mM N-methyl-glucamine instead of NaCl). The plates are then incubated for 60 minutes in the dark with 2 μM FLUO4-AM dye (20 μL) (Molecular Probes, Netherlands) at room temperature to allow cell uptake of the FLUO-4AM, which is then converted to FLUO-4 by intracellular esterases which is unable to leave the cell. After incubation each well is washed three times with buffer (80 μL) (30 μL of buffer remained in each well after washing).
Compounds of the invention (or reference compounds such as cyclothiazide) are dissolved in dimethylsulfoxide (DMSO) at a stock concentration of 10 mM. These solutions are further diluted with DMSO using a Biomek FX (Beckman Coulter) in a 384 compound plate. Each dilution (1 μL) is transferred to another compound plate and buffer (50 μL) is added. An agonist stimulus (glutamate) plate is prepared by dissolving sodium glutamate in water to give a concentration of 100 mM. This solution is diluted with buffer to give a final concentration of 500 μM and dispensed into another 384-well plate (50 μL/well) using a Multidrop (Thermolabsystems).
The cell plate is then transferred into a fluorescence imaging plate based reader [such as the FLIPR384 (Molecular Devices)]. A baseline fluorescence reading is taken over a 10 to 240 second period, and then 10 μL from each plate containing a compound of the invention made up in standard buffer solution (in a concentration range from 100 μM to 10 μM) is added (to give a final concentration in the range 30 μM to 3 μM). The fluorescence is read over 5 minute period. 500 μM glutamate solution (10 μL) is added (to give a final concentration of 100 μM). The fluorescence is then read over a 4 minute period. The activities of the compounds of the invention and reference compounds are determined by measuring peak fluorescence after the last addition. The activity is also expressed relative to the fluorescence increase induced by cyclothiazide at their maximum response (i.e. greater than 30 μM).
The assay described above is believed to have an effective limit of detection of a pEC50 in the region of 3.5-4.0 due to the limitations of compound solubility. The pEC50 result is generally considered to be accurate +/−0.3.

T1 sequence (P42262 25-883 isoform P42262-2 limits assumed): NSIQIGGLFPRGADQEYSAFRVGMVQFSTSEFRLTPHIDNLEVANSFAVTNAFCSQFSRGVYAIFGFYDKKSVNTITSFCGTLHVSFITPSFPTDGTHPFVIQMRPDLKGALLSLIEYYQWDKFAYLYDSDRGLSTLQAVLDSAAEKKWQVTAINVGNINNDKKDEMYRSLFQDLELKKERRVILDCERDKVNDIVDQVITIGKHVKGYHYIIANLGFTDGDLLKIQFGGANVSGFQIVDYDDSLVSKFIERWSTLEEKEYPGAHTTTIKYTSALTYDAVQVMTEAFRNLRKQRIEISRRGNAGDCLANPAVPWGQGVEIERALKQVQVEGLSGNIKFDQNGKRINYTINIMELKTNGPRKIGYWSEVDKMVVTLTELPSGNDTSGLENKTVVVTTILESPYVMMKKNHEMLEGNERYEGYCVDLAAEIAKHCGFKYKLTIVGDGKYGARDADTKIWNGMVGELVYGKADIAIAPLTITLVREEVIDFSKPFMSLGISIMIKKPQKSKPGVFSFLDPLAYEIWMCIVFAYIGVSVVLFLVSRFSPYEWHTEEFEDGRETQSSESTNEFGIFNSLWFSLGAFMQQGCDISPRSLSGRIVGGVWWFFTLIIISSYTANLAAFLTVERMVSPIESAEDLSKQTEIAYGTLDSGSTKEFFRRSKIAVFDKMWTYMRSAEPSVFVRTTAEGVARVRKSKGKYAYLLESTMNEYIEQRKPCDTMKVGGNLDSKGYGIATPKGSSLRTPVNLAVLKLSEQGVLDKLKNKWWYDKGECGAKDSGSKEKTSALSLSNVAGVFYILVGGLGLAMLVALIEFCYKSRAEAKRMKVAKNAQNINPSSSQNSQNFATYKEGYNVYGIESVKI

| Emax [%] | Structure (SMILES) |
| --- | --- |
| ≥ 50 | CC(C)S(=O)(=O)N[C@@H]1COC[C@@H]1c1ccc(-c2ccc3c(c2)OCO3)cc1 (racemic) [Example 10, N-{cis-4-[4-(1,3-benzodioxol-5-yl)phenyl]tetrahydro-3-furanyl}-2-propanesulfonamide] |
| ≥ 50 | CC(C)S(=O)(=O)N[C@@H]1COC[C@@H]1c1ccc(-c2ccsc2)cc1 (racemic) [Example 11, N-{cis-4-[4-(3-thienyl)phenyl]tetrahydro-3-furanyl}-2-propanesulfonamide] |
| ≥ 50 | CC(=O)c1cccc(-c2ccc([C@H]3COC[C@H]3NS(=O)(=O)C(C)C)cc2)c1 (racemic) [Example 9, N-[cis-4-(3′-acetyl-4-biphenylyl)tetrahydro-3-furanyl]-2-propanesulfonamide] |
| ≥ 50 | CC(C)S(=O)(=O)N[C@@H]1COC[C@@H]1c1ccc(-c2cccs2)cc1 (racemic) [Example 12, N-{cis-4-[4-(2-thienyl)phenyl]tetrahydro-3-furanyl}-2-propanesulfonamide] |

The next lines start with the molecule.

| Structure (SMILES) | Emax [%] |
| --- | --- |
| CC(C)S(=O)(=O)N[C@@H]1COC[C@@H]1c1ccc(-c2ccc(F)cc2)cc1 (racemic) [Example 7, N-[cis-4-(4′-fluoro-4-biphenylyl)tetrahydro-3-furanyl]-2-propanesulfonamide] | ≥ 50 |
| CC(C)S(=O)(=O)N[C@@H]1COC[C@@H]1c1ccc(-c2ccc(C#N)cc2)cc1 (racemic) [Example 8, N-[cis-4-(4′-cyano-4-biphenylyl)tetrahydro-3-furanyl]-2-propanesulfonamide] | ≥ 50 |
| CC(C)S(=O)(=O)N[C@@H]1COC[C@@H]1c1ccc(-c2ccc(F)cn2)cc1 (racemic) [Example 3, N-{cis-4-[4-(5-fluoro-2-pyridinyl)phenyl]tetrahydro-3-furanyl}-2-propanesulfonamide] | ≥ 50 |
| CC(C)S(=O)(=O)N[C@@H]1COC[C@@H]1c1ccc(-c2cncc(F)c2)cc1 (racemic) [Example 4, N-{cis-4-[4-(5-fluoro-3-pyridinyl)phenyl]tetrahydro-3-furanyl}-2-propanesulfonamide] | ≥ 50 |
| CC(C)S(=O)(=O)N[C@@H]1COC[C@@H]1c1ccc(-c2ccc(Cl)cn2)cc1 (racemic) [Example 5, N-{cis-4-[4-(5-chloro-2-pyridinyl)phenyl]tetrahydro-3-furanyl}-2-propanesulfonamide] | ≥ 50 |
| CC(C)S(=O)(=O)N[C@@H]1COC[C@@H]1c1ccc(-c2ccc(F)nc2)cc1 (racemic) [Example 1, N-{cis-4-[4-(6-fluoro-3-pyridinyl)phenyl]tetrahydro-3-furanyl}-2-propanesulfonamide] | ≥ 50 |
| Cc1ccc(-c2ccc([C@H]3COC[C@H]3NS(=O)(=O)C(C)C)cc2)cn1 (racemic) [Example 2, N-{cis-4-[4-(6-methyl-3-pyridinyl)phenyl]tetrahydro-3-furanyl}-2-propanesulfonamide] | ≥ 50 |
| Cc1cncc(-c2ccc([C@H]3COC[C@H]3NS(=O)(=O)C(C)C)cc2)c1 (racemic) [Example 6, N-{cis-4-[4-(5-methyl-3-pyridinyl)phenyl]tetrahydro-3-furanyl}-2-propanesulfonamide] | ≥ 50 |

— patent US20090221643A1, “4-PHENYL-3-(2-PROPYLSULFONYLAMINO) TETRAHYDROFURAN DERIVATIVES WHICH POTENTIATE GLUTAMATE RECEPTORS AND ARE USEFUL IN THE TREATMENT OF SCHIZOPHRENIA” (priority 2006, published 2009)
